The target of test [1] is T1, ITK (Homo sapiens, UniProt Q08881).
T1 sequence (Q08881 1-620): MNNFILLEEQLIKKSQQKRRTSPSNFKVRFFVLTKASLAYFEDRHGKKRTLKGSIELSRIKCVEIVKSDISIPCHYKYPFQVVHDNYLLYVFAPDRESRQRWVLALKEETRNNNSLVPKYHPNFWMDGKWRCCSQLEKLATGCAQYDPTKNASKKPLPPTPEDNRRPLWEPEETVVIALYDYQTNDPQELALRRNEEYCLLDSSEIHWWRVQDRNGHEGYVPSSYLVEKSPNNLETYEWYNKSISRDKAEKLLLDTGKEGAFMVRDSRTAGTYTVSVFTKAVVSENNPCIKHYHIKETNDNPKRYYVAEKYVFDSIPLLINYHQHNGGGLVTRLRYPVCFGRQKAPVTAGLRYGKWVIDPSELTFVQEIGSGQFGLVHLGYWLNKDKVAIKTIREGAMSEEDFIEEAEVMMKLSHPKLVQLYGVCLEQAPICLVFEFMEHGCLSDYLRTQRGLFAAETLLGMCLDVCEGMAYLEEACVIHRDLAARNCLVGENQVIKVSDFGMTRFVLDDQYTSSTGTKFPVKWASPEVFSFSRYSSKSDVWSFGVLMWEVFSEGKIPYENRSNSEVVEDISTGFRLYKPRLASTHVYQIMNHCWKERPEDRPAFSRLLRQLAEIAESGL
In words: ITK kinase assay a) (polyGT, FRET). In kind it is biochemical. Particulars: polyGT substrate, 1.3 μM ATP. The method, then:
For the determination of the kinase activity of ITK, the phosphorylation of polyGT is measured. In the kinase reaction, 106 pM ITK, 1.3 μM ATP and 20 nM polyGT are used. The reaction runs for 20 mins at RT and is then stopped by addition of EDTA (final concentration 60 mM).
The reaction buffer contains 50 mM TrisCL pH7.5, 10 mM MnCl2, 10% glycerine, 1 mM DTT, 0.1% Tween-20 and 0.1 mM Na3V04 and a protease inhibitor cocktail (“complete”, Roche diagnostics)
The measurement of the enzyme activity is effected by the determination of the phosphorylated substrates. The poly GT substrate used is biotinylated. The measurement is performed in a FRET-based assay, wherein an anti-phospho-tyrosine antibody recognises and binds the phosphorylated substrate poly GT.
The bound antibody is now in the spatial vicinity of a streptavidin-coupled fluorescence dye, which was bound to polyGt by biotin-streptavidin interaction. On excitation of the europium chelate on the phosphotyrosine antibody with […] UV light, light of the wavelength 620 nm is emitted, which in turn excites the dye XLent, which then emits light of longer wavelength (665 nm).
The detection reagents are added in 50 mM Hepes pH 7.0 with 0.1% BSA. […]
After addition of the detection reagents, the samples stand overnight at 4 degrees Celsius, in order to form the FRET-creating complexes. For example, an IC50=4 μM was measured for Example 1.7.

Test [2] deals with T2, human Itk (Homo sapiens, UniProt Q08881).
T2 construct: kinase domain of the human Itk (amino acids 352-617); 6His (N); purchased Upstate (Dundee, UK); host or cells: baculovirus infected SF21 cells
T2 sequence (Q08881 352-617): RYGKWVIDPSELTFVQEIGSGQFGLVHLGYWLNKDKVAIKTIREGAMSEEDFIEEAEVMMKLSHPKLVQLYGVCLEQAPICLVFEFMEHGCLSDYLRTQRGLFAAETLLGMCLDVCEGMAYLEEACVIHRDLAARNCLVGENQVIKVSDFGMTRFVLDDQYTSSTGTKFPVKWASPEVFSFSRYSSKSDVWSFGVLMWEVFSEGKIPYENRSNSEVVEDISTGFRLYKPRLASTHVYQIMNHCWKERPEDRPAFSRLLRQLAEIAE
In words: ITK kinase assay b) (Itk HTRF assay). In kind it is biochemical. The conditions noted are these: biotinylated myelin basic protein, 10 μM ATP. The text has this:
Itk inhibitory activity of compounds of the present invention was quantified employing the Itk HTRF assay as described in the following paragraphs.
N-terminal 6His-tagged recombinant kinase domain of the human Itk (amino acids 352-617) expressed in baculovirus infected SF21 cells and purified using Ni^2+/NTA agarose was purchased form Upstate (Dundee, UK) and used as kinase. As substrate for the kinase reaction the biotinylated myelin basic protein was used which can be purchased form GE Healthcare (Freiburg i. Br., Germany). […]
The resulting mixture was incubated 1 h at 22° C. to allow the binding of the biotinylated phosphorylated substrate to the streptavidine-XLent and the PT66-Eu-Chelate. Subsequently the amount of phosphorylated substrate was evaluated by measurement of the resonance energy transfer from the PT66-Eu-Chelate to the streptavidine-XLent. Therefore, the fluorescence emissions at 620 nm and 665 nm after excitation at 350 nm was measured in a HTRF reader, e.g. a Rubystar (BMG Labtechnologies, Offenburg, Germany) or a Viewlux (Perkin-Elmer). […] The data were normalised (enzyme reaction without inhibitor=0% inhibition, all other assay components but no enzyme=100% inhibition) and IC50 values were calculated by a 4 parameter fit using an inhouse software.

Broadly, the IC50 is the concentration that inhibits the measured activity by half. The low end stands for greater potency in that assay, the high end for weaker potency in that assay. Take `CCOC(=O)N=S(C)(=O)c1ccc(Nc2ncc(-c3cccs3)c(N[C@H](CC)CO)n2)cc1Br` (mixture of isomers) [Example 1.7, (RS)—S-{2-bromo-4-[(4-{[(R)-1-(hydroxymethyl)propyl]amino}-5-(2-thienyl)pyrimidine-2-yl)amino]phenyl}-N-(ethoxycarbonyl)-S-methylsulfoximide]: the IC50 in test [1] is 4 µM; in test [2], 400 nM.

Source of the values: US7825128B2, “Sulfoximine-substituted pyrimidines, processes for production thereof and use thereof as drugs” (Bayer Schering Pharma AG, priority 2005, dated 2010).
